Tested on: transgenic maize plants
Test: Detection of the herbicide tolerance of the transgenic maize plants
Type: in vivo
Conditions: for The grade of pesticide damage/plant: 0 / The grade of pesticide damage/plant: 1 / The grade of pesticide damage/plant: 2 / The grade of pesticide damage/plant: 3: 7 DAT
Description: The transformed Arabidopsis thaliana T1 plants were initially selected using glufosinate herbicide. The Arabidopsis thaliana T1 plants (PPOA-01) into which the PPOA-01 nucleotide sequence was introduced, the Arabidopsis thaliana T1 plants (PPOB-01) into which the PPOB-01 nucleotide sequence was introduced, the Arabidopsis thaliana T1 plants (PPOC-01) into which the PPOC-01 nucleotide sequence was introduced, the Arabidopsis thaliana T1 plants (PPOD-01) into which the PPOD-01 nucleotide sequence was introduced, the Arabidopsis thaliana T1 plants (PPOE-01) into which the PPOE-01 nucleotide sequence was introduced, the Arabidopsis thaliana T1 plants (PPOF-01) into which the PPOF-01 nucleotide sequence was introduced, the Arabidopsis thaliana T1 plants (PPO-AP-01) into which the PPO-AP-01 nucleotide sequence was introduced, and the Arabidopsis thaliana T1 plants (control vector) into which the control vector was introduced, the wild-type Arabidopsis thaliana plants (CK) (with 24 plants being included in each genotype) (18 days after sowing) were sprayed with saflufenacil at three concentrations (25 g ai/ha (one-fold field concentration, 1×), 100 g ai/ha (four-fold field concentration, 4×), and 0 g ai/ha (water, 0×)), oxyfluorfen at three concentrations (180 g ai/ha (one-fold field concentration, 1×), 720 g ai/ha (four-fold field concentration, 4×), and 0 g ai/ha (water, 0×)), and flumioxazin at three concentrations (60 g ai/ha (one-fold field concentration, 1×), 240 g ai/ha (four-fold field concentration, 4×), and 0 g ai/ha (water, 0×) to determine the tolerance of Arabidopsis thaliana to the herbicides. After 7 days of spraying (7 DAT), the damage level of each plant caused by the herbicide was evaluated according to the average of the damage levels (%) of plants (the average of the damage levels (%) of plants=the injured leaf area/the total leaf area×100%), i.e., the grade of pesticide damage: grade 0 means that the growth status of plants is essentially consistent with those sprayed with the blank solvent (water); grade 1 means that the average of the damage levels of plants is less than 10%; grade 2 means that the average of the damage levels of plants is greater than 10%; and grade 3 means that the average of the damage levels of plants is 100%. The plants having a growth status falling within grades 0 and 1 are classified as highly resistant plants; those having a growth status falling within grade 2 are classified as poorly resistant plants; and those having a growth status falling within grade 3 are classified as non-resistant plants.
The maize plants into which the PPOA-02 nucleotide sequence was introduced, the maize plants into which the PPOB-02 nucleotide sequence was introduced, the maize plants into which the PPOC-02 nucleotide sequence was introduced, the maize plants into which the PPOD-02 nucleotide sequence was introduced, the maize plants into which the PPOE-02 nucleotide sequence was introduced, the maize plants into which the PPOF-02 nucleotide sequence was introduced, the maize plants into which the PPO-AP-02 nucleotide sequence was introduced, the maize plants (control vector) into which the control vector was introduced, and the wild-type maize plants (CK) (with 16 plants being included in each genotype) (18 days after sowing) were taken and sprayed with saflufenacil at three concentrations (50 g ai/ha (two-fold field concentration, 2×), 100 g ai/ha (four-fold field concentration, 4×), and 0 g ai/ha (water, 0×)), oxyfluorfen at three concentrations (360 g ai/ha (two-fold field concentration, 2×), 720 g ai/ha (four-fold field concentration, 4×), and 0 g ai/ha (water, 0×), and flumioxazin at three concentrations (120 g ai/ha (two-fold field concentration, 2×), 240 g ai/ha (four-fold field concentration, 4×), and 0 g ai/ha (water, 0×) to determine the tolerance of maize plants to the herbicides. […]

[1] = genotype Control vector, 50 g ai/ha
[2] = genotype Control vector, 100 g ai/ha
[3] = genotype PPO-AP-02, 100 g ai/ha

## CC(C)N(C)S(=O)(=O)NC(=O)c1cc(-n2c(=O)cc(C(F)(F)F)n(C)c2=O)c(F)cc1Cl [saflufenacil, N′-[2-chloro-4-fluoro-5-(3-methyl-2,6-dioxo-4-(trifluoromethyl)-3,6-dihydro-1 (2H)-pyrimidine)benzoyl]-N-isopropyl-N-methylsulfamide]
Genotype CK, 50 g ai/ha
  The grade of pesticide damage/plant: 0: 0 plant
  The grade of pesticide damage/plant: 1: 0 plant
  The grade of pesticide damage/plant: 2: 0 plant
  The grade of pesticide damage/plant: 3: 16 plant
Genotype CK, 100 g ai/ha
  The grade of pesticide damage/plant: 0: 0 plant
  The grade of pesticide damage/plant: 1: 0 plant
  The grade of pesticide damage/plant: 2: 0 plant
  The grade of pesticide damage/plant: 3: 16 plant
[1]
  The grade of pesticide damage/plant: 0: 0 plant
  The grade of pesticide damage/plant: 1: 0 plant
  The grade of pesticide damage/plant: 2: 0 plant
  The grade of pesticide damage/plant: 3: 16 plant
[2]
  The grade of pesticide damage/plant: 0: 0 plant
  The grade of pesticide damage/plant: 1: 0 plant
  The grade of pesticide damage/plant: 2: 0 plant
  The grade of pesticide damage/plant: 3: 16 plant
Genotype PPO-AP-02, 50 g ai/ha
  The grade of pesticide damage/plant: 0: 0 plant
  The grade of pesticide damage/plant: 1: 0 plant
  The grade of pesticide damage/plant: 2: 7 plant
  The grade of pesticide damage/plant: 3: 9 plant
[3]
  The grade of pesticide damage/plant: 0: 0 plant
  The grade of pesticide damage/plant: 1: 0 plant
  The grade of pesticide damage/plant: 2: 1 plant
  The grade of pesticide damage/plant: 3: 15 plant
Genotype PPO-AP-02, four-fold field concentration
  tolerance to the herbicide (in words): basically no tolerance
Genotype PPO-AP-02, two-fold field concentration
  share of the plants that exhibited no tolerance: about 56%
Genotype PPOA-02, 50 g ai/ha
  The grade of pesticide damage/plant: 0: 16 plant
  The grade of pesticide damage/plant: 1: 0 plant
  The grade of pesticide damage/plant: 2: 0 plant
  The grade of pesticide damage/plant: 3: 0 plant
Genotype PPOA-02, 100 g ai/ha
  The grade of pesticide damage/plant: 0: 16 plant
  The grade of pesticide damage/plant: 1: 0 plant
  The grade of pesticide damage/plant: 2: 0 plant
  The grade of pesticide damage/plant: 3: 0 plant
Genotype PPOB-02, 50 g ai/ha
  The grade of pesticide damage/plant: 0: 16 plant
  The grade of pesticide damage/plant: 1: 0 plant
  The grade of pesticide damage/plant: 2: 0 plant
  The grade of pesticide damage/plant: 3: 0 plant
Genotype PPOB-02, 100 g ai/ha
  The grade of pesticide damage/plant: 0: 16 plant
  The grade of pesticide damage/plant: 1: 0 plant
  The grade of pesticide damage/plant: 2: 0 plant
  The grade of pesticide damage/plant: 3: 0 plant
Genotype PPOC-02, 50 g ai/ha
  The grade of pesticide damage/plant: 0: 16 plant
  The grade of pesticide damage/plant: 1: 0 plant
  The grade of pesticide damage/plant: 2: 0 plant
  The grade of pesticide damage/plant: 3: 0 plant
Genotype PPOC-02, 100 g ai/ha
  The grade of pesticide damage/plant: 0: 16 plant
  The grade of pesticide damage/plant: 1: 0 plant
  The grade of pesticide damage/plant: 2: 0 plant
  The grade of pesticide damage/plant: 3: 0 plant
Genotype PPOD-02, 50 g ai/ha
  The grade of pesticide damage/plant: 0: 16 plant
  The grade of pesticide damage/plant: 1: 0 plant
  The grade of pesticide damage/plant: 2: 0 plant
  The grade of pesticide damage/plant: 3: 0 plant
Genotype PPOD-02, 100 g ai/ha
  The grade of pesticide damage/plant: 0: 16 plant
  The grade of pesticide damage/plant: 1: 0 plant
  The grade of pesticide damage/plant: 2: 0 plant
  The grade of pesticide damage/plant: 3: 0 plant
Genotype PPOE-02, 50 g ai/ha
  The grade of pesticide damage/plant: 0: 16 plant
  The grade of pesticide damage/plant: 1: 0 plant
  The grade of pesticide damage/plant: 2: 0 plant
  The grade of pesticide damage/plant: 3: 0 plant
Genotype PPOE-02, 100 g ai/ha
  The grade of pesticide damage/plant: 0: 16 plant
  The grade of pesticide damage/plant: 1: 0 plant
  The grade of pesticide damage/plant: 2: 0 plant
  The grade of pesticide damage/plant: 3: 0 plant
Genotype PPOF-02, 50 g ai/ha
  The grade of pesticide damage/plant: 0: 16 plant
  The grade of pesticide damage/plant: 1: 0 plant
  The grade of pesticide damage/plant: 2: 0 plant
  The grade of pesticide damage/plant: 3: 0 plant
Genotype PPOF-02, 100 g ai/ha
  The grade of pesticide damage/plant: 0: 10 plant
  The grade of pesticide damage/plant: 1: 6 plant
  The grade of pesticide damage/plant: 2: 0 plant
  The grade of pesticide damage/plant: 3: 0 plant
Genotypes PPOA-02 to PPOF-02, four-fold field concentration
  tolerance to the herbicide (in words): high-resistant tolerance
Genotypes PPOA-02 to PPOF-02, two-fold field concentration
  tolerance to the herbicide (in words): high-resistant tolerance
